Drawing on patent US20250215012A1, “IKZF2 DEGRADERS AND USES THEREOF” (REGENTS OF THE UNIVERSITY OF MICHIGAN, priority 2022, published 2025), this text covers DC50 and Dmax for 25 compounds.

Usually DC50 stands for the concentration giving 50% degradation. What is called Dmax is the greatest extent of degradation seen.

The test deals with IKZF2 (Homo sapiens (Human), UniProt Q96SW2+Q9UKS7). Nature of the test: IKZF2 HiBiT Assay (Jurkat-IKZF2-HiBiT cell line). Format: cell-based. The conditions noted are these: Jurkat-IKZF2-HiBiT cells, 24 hours; for DC50: read-out: HiBit assay degradation analysis DC50; for Dmax: read-out: HiBit assay degradation analysis Dmax. The procedure, abridged: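 IKZF2 degradation was assessed as HiBiT luminescence in Jurkat-IKZF2-HiBiT cells, using lytic detection after 24 h of compound treatment at 37 °C, 5% CO2.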
(With HiBiT, luminescence reflects the tagged protein that the partner subunit can reach.)

IKZF2, sequence (Q9UKS7 whole entry): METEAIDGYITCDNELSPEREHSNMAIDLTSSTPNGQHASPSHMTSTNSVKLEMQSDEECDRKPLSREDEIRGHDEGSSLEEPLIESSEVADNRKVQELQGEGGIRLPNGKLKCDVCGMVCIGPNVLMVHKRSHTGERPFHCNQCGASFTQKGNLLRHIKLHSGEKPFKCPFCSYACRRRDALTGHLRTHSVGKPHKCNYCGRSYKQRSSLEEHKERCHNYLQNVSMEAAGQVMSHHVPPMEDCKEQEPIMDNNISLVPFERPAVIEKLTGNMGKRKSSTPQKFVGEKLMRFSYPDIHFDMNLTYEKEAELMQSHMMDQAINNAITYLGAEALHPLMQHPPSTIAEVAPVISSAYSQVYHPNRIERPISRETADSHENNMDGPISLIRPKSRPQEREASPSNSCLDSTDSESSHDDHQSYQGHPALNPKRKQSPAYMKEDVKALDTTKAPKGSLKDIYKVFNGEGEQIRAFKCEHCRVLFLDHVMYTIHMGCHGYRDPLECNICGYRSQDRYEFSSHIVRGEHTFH
IKZF2, sequence (Q96SW2 whole entry): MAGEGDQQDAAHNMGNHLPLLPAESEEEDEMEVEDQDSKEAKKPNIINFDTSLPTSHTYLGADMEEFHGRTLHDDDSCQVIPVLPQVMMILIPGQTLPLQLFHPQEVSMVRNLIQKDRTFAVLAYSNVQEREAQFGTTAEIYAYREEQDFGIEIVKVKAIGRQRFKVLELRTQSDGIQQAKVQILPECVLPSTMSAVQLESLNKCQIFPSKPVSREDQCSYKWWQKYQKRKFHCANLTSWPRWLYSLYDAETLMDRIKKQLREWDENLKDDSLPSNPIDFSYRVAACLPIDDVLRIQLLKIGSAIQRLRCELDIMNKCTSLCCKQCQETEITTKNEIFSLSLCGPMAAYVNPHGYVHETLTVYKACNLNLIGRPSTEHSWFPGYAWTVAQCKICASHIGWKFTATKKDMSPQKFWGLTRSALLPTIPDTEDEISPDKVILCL
IKZF2, sequence (Q16531 whole entry partner): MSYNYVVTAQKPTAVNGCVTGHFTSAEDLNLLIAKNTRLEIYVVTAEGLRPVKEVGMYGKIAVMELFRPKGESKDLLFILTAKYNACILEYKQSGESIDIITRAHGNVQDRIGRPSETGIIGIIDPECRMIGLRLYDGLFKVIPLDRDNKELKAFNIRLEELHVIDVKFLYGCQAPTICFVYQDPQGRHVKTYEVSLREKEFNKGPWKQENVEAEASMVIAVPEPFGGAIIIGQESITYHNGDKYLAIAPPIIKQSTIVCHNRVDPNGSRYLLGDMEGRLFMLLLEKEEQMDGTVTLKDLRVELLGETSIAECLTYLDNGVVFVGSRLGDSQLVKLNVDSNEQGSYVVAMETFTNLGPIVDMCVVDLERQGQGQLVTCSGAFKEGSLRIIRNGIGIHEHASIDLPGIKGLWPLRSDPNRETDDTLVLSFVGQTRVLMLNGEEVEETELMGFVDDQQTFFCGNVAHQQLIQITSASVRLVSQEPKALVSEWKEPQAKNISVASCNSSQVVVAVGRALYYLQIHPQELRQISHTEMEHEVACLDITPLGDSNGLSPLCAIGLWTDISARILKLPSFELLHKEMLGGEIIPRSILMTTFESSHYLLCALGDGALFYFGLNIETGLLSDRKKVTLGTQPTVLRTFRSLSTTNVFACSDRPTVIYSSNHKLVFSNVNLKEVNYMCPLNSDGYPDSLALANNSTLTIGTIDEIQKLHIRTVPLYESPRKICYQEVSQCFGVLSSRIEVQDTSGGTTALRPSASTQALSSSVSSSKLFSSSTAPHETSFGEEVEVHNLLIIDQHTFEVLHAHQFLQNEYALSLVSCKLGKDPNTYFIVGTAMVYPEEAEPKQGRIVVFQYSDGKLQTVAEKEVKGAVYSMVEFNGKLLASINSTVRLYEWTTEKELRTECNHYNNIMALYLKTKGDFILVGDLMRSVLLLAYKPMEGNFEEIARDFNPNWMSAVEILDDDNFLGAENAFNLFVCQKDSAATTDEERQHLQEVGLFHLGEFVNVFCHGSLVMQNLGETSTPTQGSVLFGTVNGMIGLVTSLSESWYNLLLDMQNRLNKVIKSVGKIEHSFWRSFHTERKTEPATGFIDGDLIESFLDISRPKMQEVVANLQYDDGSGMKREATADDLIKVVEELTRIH

Turning to `O=C1CCC(N2Cc3c(ccc4c3OCC43CCN(Cc4cccn5ccnc45)CC3)C2=O)C(=O)N1` (stereo not shown) [Compound A77, 3-(1′-(imidazo[1,2-a]pyridin-8-ylmethyl)-6-oxo-6,8-dihydro-2H,7H-spiro[furo[2,3-e]isoindole-3,4′-piperidin]-7-yl)piperidine-2,6-dione], the DC50 was > 500 nM and the Dmax was 40 to 60%. For the compound `O=C1CCC(N2Cc3c(ccc4c3OCC43CCN(Cc4cccc5c4COC5)CC3)C2=O)C(=O)N1` (stereo not shown) [Compound A113, 3-(1′-((1,3-dihydroisobenzofuran-4-yl)methyl)-6-oxo-6,8-dihydro-2H,7H-spiro[furo[2,3-e]isoindole-3,4′-piperidin]-7-yl)piperidine-2,6-dione], the 50% degradation concentration (DC50) is < 50 nM and the Dmax lay within 60 to 80%. In the same order, the values of `O=C1CCC(N2Cc3c(ccc4c3OCC43CCN(Cc4cc(F)cc5ccoc45)CC3)C2=O)C(=O)N1` (stereo not shown) [Compound A117, 3-(1′-((5-fluorobenzofuran-7-yl)methyl)-6-oxo-6,8-dihydro-2H,7H-spiro[furo[2,3-e]isoindole-3,4′-piperidin]-7-yl)piperidine-2,6-dione] are 200 to 500 nM and 40 to 60%. In the same order, the values of `Cn1ccc(-c2cccc(CN3CCC4(CC3)COc3c4ccc4c3CN([C@H]3CCC(=O)NC3=O)C4=O)c2)n1` [Compound A267, (S)-3-(1′-(3-(1-methyl-1H-pyrazol-3-yl)benzyl)-6-oxo-6,8-dihydro-2H,7H-spiro[furo[2,3-e]isoindole-3,4′-piperidin]-7-yl)piperidine-2,6-dione] are < 50 nM and 60 to 80%. In the same order, the values of `COc1ncc(CN2CCC3(CC2)COc2c3ccc3c2CN(C2CCC(=O)NC2=O)C3=O)cn1` (stereo not shown) [Compound A26, 3-(1′-((2-methoxypyrimidin-5-yl)methyl)-6-oxo-6,8-dihydro-2H,7H-spiro[furo[2,3-e]isoindole-3,4′-piperidin]-7-yl)piperidine-2,6-dione] are > 500 nM and < 40%. In the case of `O=C1CCC(N2Cc3c(ccc4c3OCC43CCN(Cc4ccc(C(F)(F)F)cc4)CC3)C2=O)C(=O)N1` (stereo not shown) [Compound A194, 3-(6-oxo-1′-(4-(trifluoromethyl)benzyl)-6,8-dihydro-2H,7H-spiro[furo[2,3-e]isoindole-3,4′-piperidin]-7-yl)piperidine-2,6-dione], the DC50 was > 500 nM and the Dmax was < 40%.

For `CCOc1ccc(CN2CCC3(CC2)COc2c3ccc3c2CN(C2CCC(=O)NC2=O)C3=O)cn1` (stereo not shown) [Compound A202, 3-(1′-((6-ethoxypyridin-3-yl)methyl)-6-oxo-6,8-dihydro-2H,7H-spiro[furo[2,3-e]isoindole-3,4′-piperidin]-7-yl)piperidine-2,6-dione], the DC50 is > 500 nM and the maximal degradation (Dmax) was < 40%. In the same order, the values of `O=C1CCC(N2Cc3c(ccc4c3OCC43CCN(Cc4ccc5ncsc5c4)CC3)C2=O)C(=O)N1` (stereo not shown) [Compound A62, 3-(1′-(benzo[d]thiazol-6-ylmethyl)-6-oxo-6,8-dihydro-2H,7H-spiro[furo[2,3-e]isoindole-3,4′-piperidin]-7-yl)piperidine-2,6-dione] are 200 to 500 nM and 40 to 60%. In the same order, the values of `CC(C)n1cc(-c2cccc(CN3CCC4(CC3)COc3c4ccc4c3CN(C3CCC(=O)NC3=O)C4=O)c2)cn1` (stereo not shown) [Compound A146, 3-(1′-(3-(1-isopropyl-1H-pyrazol-4-yl)benzyl)-6-oxo-6,8-dihydro-2H,7H-spiro[furo[2,3-e]isoindole-3,4′-piperidin]-7-yl)piperidine-2,6-dione] are < 50 nM and 60 to 80%. For `O=C1CCC(N2Cc3c(ccc4c3OCC43CCN(Cc4cnn(Cc5ccccc5Cl)c4)CC3)C2=O)C(=O)N1` (stereo not shown) [Compound A240, 3-(1′-((1-(2-chlorobenzyl)-1H-pyrazol-4-yl)methyl)-6-oxo-6,8-dihydro-2H,7H-spiro[furo[2,3-e]isoindole-3,4′-piperidin]-7-yl)piperidine-2,6-dione], the DC50 is < 50 nM and the greatest degradation seen (Dmax) fell in the range of 60 to 80%.

Take `O=C1CCC(N2Cc3c(ccc4c3OCC43CCN(Cc4ccc(-c5ccccc5)cc4)CC3)C2=O)C(=O)N1` (stereo not shown) [Compound A25, 3-(1′-([1,1′-biphenyl]-4-ylmethyl)-6-oxo-6,8-dihydro-2H,7H-spiro[furo[2,3-e]isoindole-3,4′-piperidin]-7-yl)piperidine-2,6-dione]: the DC50 was > 500 nM and the greatest degradation seen (Dmax) lay within 40 to 60%. In the same order, the values of `CC(C)c1ccc(CN2CCC3(CC2)COc2c3ccc3c2CN(C2CCC(=O)NC2=O)C3=O)cc1` (stereo not shown) [Compound A191, 3-(1′-(4-isopropylbenzyl)-6-oxo-6,8-dihydro-2H,7H-spiro[furo[2,3-e]isoindole-3,4′-piperidin]-7-yl)piperidine-2,6-dione] are > 500 nM and < 40%. In the case of `CS(=O)(=O)c1cccc(CN2CCC3(CC2)COc2c3ccc3c2CN(C2CCC(=O)NC2=O)C3=O)c1` (stereo not shown) [Compound A235, 3-(1′-(3-(methylsulfonyl)benzyl)-6-oxo-6,8-dihydro-2H,7H-spiro[furo[2,3-e]isoindole-3,4′-piperidin]-7-yl)piperidine-2,6-dione], the half-maximal degradation concentration (DC50) is > 500 nM and the greatest degradation seen (Dmax) was < 40%. As to `O=C1CCC(N2Cc3c(ccc4c3OCC43CCN(Cc4ccc5occc5c4)CC3)C2=O)C(=O)N1` (stereo not shown) [Compound A120, 3-(1′-(benzofuran-5-ylmethyl)-6-oxo-6,8-dihydro-2H,7H-spiro[furo[2,3-e]isoindole-3,4′-piperidin]-7-yl)piperidine-2,6-dione], the DC50 was < 50 nM and the maximal degradation (Dmax) lay in the range of 60 to 80%.

Turning to `O=C1CCC(N2Cc3c(ccc4c3OCC43CCN(Cc4ccc(-n5cccn5)cc4)CC3)C2=O)C(=O)N1` (stereo not shown) [Compound A222, 3-(1′-(4-(1H-pyrazol-1-yl)benzyl)-6-oxo-6,8-dihydro-2H,7H-spiro[furo[2,3-e]isoindole-3,4′-piperidin]-7-yl)piperidine-2,6-dione], the DC50 was > 500 nM and the maximal degradation (Dmax) lay within 40 to 60%. In the same order, the values of `O=C1CCC(N2Cc3c(ccc4c3OCC43CCN(Cc4ccn5nccc5c4)CC3)C2=O)C(=O)N1` (stereo not shown) [Compound A80, 3-(6-oxo-1′-(pyrazolo[1,5-a]pyridin-5-ylmethyl)-6,8-dihydro-2H,7H-spiro[furo[2,3-e]isoindole-3,4′-piperidin]-7-yl)piperidine-2,6-dione] are > 500 nM and < 40%. In the same order, the values of `O=C1CCC(N2Cc3c(ccc4c3OCC43CCN(CC4CCCC4)CC3)C2=O)C(=O)N1` (stereo not shown) [Compound A18, 3-(1′-(cyclopentylmethyl)-6-oxo-6,8-dihydro-2H,7H-spiro[furo[2,3-e]isoindole-3,4′-piperidin]-7-yl)piperidine-2,6-dione] are > 500 nM and < 40%. In the same order, the values of `O=C1CCC(N2Cc3c(ccc4c3OCC43CCN(CC4Cc5ccccc5C4)CC3)C2=O)C(=O)N1` (stereo not shown) [Compound A22, 3-(1′-((2,3-dihydro-1H-inden-2-yl)methyl)-6-oxo-6,8-dihydro-2H,7H-spiro[furo[2,3-e]isoindole-3,4′-piperidin]-7-yl)piperidine-2,6-dione] are > 500 nM and < 40%.

Consider `O=C1CCC(N2Cc3c(ccc4c3OCC43CCN(C[C@H]4C[C@@H]4c4ccccc4)CC3)C2=O)C(=O)N1` (stereo partly drawn) [Compound A332, 3-(6-oxo-1′-(((1S,2S)-2-phenylcyclopropyl)methyl)-6,8-dihydro-2H,7H-spiro[furo[2,3-e]isoindole-3,4′-piperidin]-7-yl)piperidine-2,6-dione], for which the DC50 is > 500 nM.

`Cc1c2ccc(CN3CCC4(CC3)COc3c4ccc4c3CN([C@H]3CCC(=O)NC3=O)C4=O)cc2nn1C` [Compound A295, (S)-3-(1′-((2,3-dimethyl-2H-indazol-6-yl)methyl)-6-oxo-6,8-dihydro-2H,7H-spiro[furo[2,3-e]isoindole-3,4′-piperidin]-7-yl)piperidine-2,6-dione]: the half-maximal degradation concentration (DC50) is < 50 nM and the Dmax was 60 to 80%. As for `O=C1CCC(N2Cc3c(ccc4c3OCC43CCN(Cc4cnn(CC5CC5)c4)CC3)C2=O)C(=O)N1` (stereo not shown) [Compound A231, 3-(1′-((1-(cyclopropylmethyl)-1H-pyrazol-4-yl)methyl)-6-oxo-6,8-dihydro-2H,7H-spiro[furo[2,3-e]isoindole-3,4′-piperidin]-7-yl)piperidine-2,6-dione], the DC50 is 200 to 500 nM and the Dmax lay within 60 to 80%. In the same order, the values of `O=C1CCC(N2Cc3c(ccc4c3OCC43CCN(Cc4cccc(-c5cn[nH]c5)c4)CC3)C2=O)C(=O)N1` (stereo not shown) [Compound A104, 3-(1′-(3-(1H-pyrazol-4-yl)benzyl)-6-oxo-6,8-dihydro-2H,7H-spiro[furo[2,3-e]isoindole-3,4′-piperidin]-7-yl)piperidine-2,6-dione] are < 50 nM and > 80%.

Take `O=C1CCC(N2Cc3c(ccc4c3OCC43CCN(Cc4cc(C(F)(F)F)cc5[nH]ccc45)CC3)C2=O)C(=O)N1` (stereo not shown) [Compound A114, 3-(6-oxo-1′-((6-(trifluoromethyl)-1H-indol-4-yl)methyl)-6,8-dihydro-2H,7H-spiro[furo[2,3-e]isoindole-3,4′-piperidin]-7-yl)piperidine-2,6-dione]: the half-maximal degradation concentration (DC50) lay within 50 to 200 nM and the Dmax lay within 60 to 80%. In the same order, the values of `N#Cc1ccc(CN2CCC3(CC2)COc2c3ccc3c2CN(C2CCC(=O)NC2=O)C3=O)cc1Cl` (stereo not shown) [Compound A33, 2-chloro-4-((7-(2,6-dioxopiperidin-3-yl)-6-oxo-7,8-dihydro-2H,6H-spiro[furo[2,3-e]isoindole-3,4′-piperidin]-1′-yl)methyl)benzonitrile] are > 500 nM and 40 to 60%.

With `O=C1CCC(N2Cc3c(ccc4c3OCC43CCN(Cc4cc5ccccc5s4)CC3)C2=O)C(=O)N1` (stereo not shown) [Compound A184, 3-(1′-(benzo[b]thiophen-2-ylmethyl)-6-oxo-6,8-dihydro-2H,7H-spiro[furo[2,3-e]isoindole-3,4′-piperidin]-7-yl)piperidine-2,6-dione], the DC50 is > 500 nM and the Dmax is < 40%.
